Consider 10 molecules from ChEMBL document CHEMBL3217406, “Small molecules aimed at type III secretion systems to inhibit bacterial virulence” (Medchemcomm, 2013).

The IC50 is the concentration that gives 50% inhibition.

≈ marks a conversion by molar mass, not a printed value. A value given as a limit tells only on which side of the number the result lay.

Test [1] can be described thus: Inhibition of T3SS-mediated LcrQ secretion in Yersinia pseudotuberculosis assessed as yopE promoter-luciferase gene expression by luciferase reporter gene assay. In general terms: Reporter assays use an easily measured gene product as a stand-in for the process of interest.
A short description of test [2]: Inhibition of phospholipase A2 activity of Pseudomonas aeruginosa N-terminal His6-tagged ExoU expressed in Escherichia coli BL21 cells using arachidonic TEPC as substrate by Ellman's method.
Test [3] is described as follows: Inhibition of Escherichia coli T3SS-mediated hemolysis of sheep erythrocytes by microplate reader analysis.
A short description of test [4]: Inhibition of Escherichia coli T3SS-mediated hemolysis of erythrocytes.
Test [5] is described as follows: Inhibition of T3SS-mediated YopE secretion in Yersinia pestis KIM19 by ELISA. For orientation: ELISA stands for enzyme-linked immunosorbent assay.
Test [6] can be described thus: Inhibition of T3SS-mediated SipB secretion in Salmonella typhimurium. Further details: species or system Salmonella enterica subsp. enterica serovar Typhimurium.
The nature of test [7]: Inhibition of T3SS-mediated ExoU secretion in Pseudomonas aeruginosa PA103.
The nature of test [8]: Inhibition of T3SS-mediated carboxypeptidase G2-SopE2-HA secretion in Salmonella typhimurium by fluorescence analysis. Further details: species or system Salmonella enterica subsp. enterica serovar Typhimurium.

`O=C(N/N=C/c1ccc(O)cc1O)c1ccc([N+](=O)[O-])cc1`: in test [1], the concentration for half-maximal inhibition (IC50) came out at 25 µM. For `NC(=O)c1cccc2c1-c1ccccc1C2`, the concentration for half-maximal inhibition (IC50) in test [2] was found to be 7 µM. `CC(C)[C@H](NC(=O)[C@H](C)NC(=O)[C@@H](N)[C@@H](N)CC[C@@H](O)[C@@H](O)C(O)[C@@H]1CN(C(N)=O)C(=N)N1)C(=O)O` (some centres not stated) had an IC50 in test [3] of 0.02 µM. As for `C/C=C\C=C\[C@@H]1O[C@](O)([C@H](CC)C(=O)NC/C=C/C=C(\C)[C@@H](OC)[C@@H](C)[C@@H]2O[C@H](/C=C/C=C/C=C(\C)C(=O)c3c(O)ccn(C)c3=O)[C@H](O)[C@@H]2O)[C@H](O)[C@H](O)C1(C)C`, the IC50 in test [4] was found to be 1.5 µg/mL (≈ 1.85 µM). The molecule `CC(=O)Nc1ccc(N2C(=O)c3ccc(C(=O)OC(C)C(=O)c4c[nH]c5ccccc45)cc3C2=O)cc1` (configuration not stated) showed a half-inhibitory concentration (IC50) in test [5] of 20 µM. The same measure, in the same setting: next, `O=C(Cc1csc(NC(=O)c2ccccc2)n1)Nn1cnc2scc(-c3ccco3)c2c1=O`: 20 µM. Regarding `O=C(O)C(Cc1ccc(Cl)cc1)Nc1nc(-c2ccc(-c3ccccc3)cc2)nc(N2CCN(c3ccccn3)CC2)n1` (configuration not stated), the IC50 in test [6] was 20 µM; in test [7] it was greater than 100 µM. On to `O=C(N/N=C/c1cc(Cl)cc(Cl)c1O)c1ccccc1`, for which the half-maximal inhibitory concentration (IC50) in test [1] came to 25 µM. Take `O=C(N/N=C/c1cc(Br)cc(Br)c1O)c1cccnc1`: the half-maximal inhibitory concentration (IC50) in test [1] turned out to be 25 µM.

`O=C(N/N=C/c1cc(Br)cc(Br)c1O)c1ccc([N+](=O)[O-])cc1`: the 50% inhibitory concentration (IC50) is 5.5 µM in test [8] and 15 µM in test [1].
